How the values were obtained:
[1] = test system: RNASEH2A knockout (KO) TK-6 cells and parental TK-6 cells; test: In vitro growth inhibition assay, Cell Titer-Glo, 72 hours; type: cell-based; settings: FIG. 9
Protocol: To determine further whether RNASEH2A is involved in the sensitization to compound 1, in vitro growth inhibition assay of compound 1 was carried out in RNASEH2A knockout (KO) TK-6 cells and its counterpart parental TK-6 cells. RNASEH2A KO TK-6 cells and its counterpart parental TK-6 cells were obtained from Kyoto University under a material transfer agreement. The cell lines were cultured in RPMI-1640 medium (FUJIFILM Wako Pure Chemical Corporation, Osaka, JAPAN) supplied with 10% Fetal Bovine Serum (CORNING Inc., NY, USA), sodium pyruvate (FUJIFILM Wako Pure Chemical Corporation, Osaka, JAPAN), and Penicillin-Streptomycin (FUJIFILM Wako Pure Chemical Corporation, Osaka, JAPAN). Stock solutions of compound 1 were prepared in dimethyl sulfoxide (DMSO), and stored at approximately −20 deg C.
Cell proliferation was measured by using Cell Titer-Glo Luminescent Cell Viability Assay (Promega, WI, USA.). The CellTiter-Glo Luminescent Cell Viability Assay is a homogeneous method of determining the number of viable cells in culture based on quantitation of the ATP present, which signals the presence of metabolically active cells. […] Luminescence of each well was measured by EnVision™ (PerkinElmer Inc., MA, USA). Taking as 100% the ATP content for the DMSO treatment control group, the ratio of the residual ATP content for each treatment group was determined. […]

[2] = test system: Twelve cancer cell lines (A549, BxPC3, Calu-1, COLO205, KYSE140, KYSE150, KYSE520, KYSE70, MIA PaCa-2, NCI-H292, PANC1, and RKO); test: CRISPR-Cas9 knock-out screening for genes sensitizing to compound 1; type: cell-based; settings: hit genes: ES<0 and p-value <0.05, control vs low dose compound 1, in more than three cancer cell lines
[3] = test system: CT26 Mouse syngeneic colon tumor model; test: In vivo combination study, syngeneic mouse tumor isograft model; settings: note to Table 9
[4] = test system: J558 mouse plasmacytoma tumors; test: as above; settings: note to Table 9
Protocol: (§1) To investigate in vivo antitumor activity of Compound 1 in combination with other agents, tests using Cell Derived Xenograft (CDX), Patient Derived Xenograft (PDX) and Syngeneic mouse tumor isograft model were conducted. Cells or Patient Derived Tumors were inoculated by one method of the following two methods (Method A and B) as shown Table 7.
(§2) Method A; Cells were maintained in either immune deficient nude mice or immune competent mice by subcutaneous inoculation of tumor cells at various concentrations into respected mice. Method B: Patient Derived Tumor s were maintained in nude mice by subcutaneous inoculation of tumor pieces (approx. 2×2×2 mm) into nude mice. Mice with tumor size of approximately 50 mm^3 (e.g., 40-75 mm^3) for syngeneic mouse studies or 200 mm^3 (e.g., 110-270 mm^3) for xenograft studies were randomly assigned to dose groups on the day (Day 0) before start date of dosing.
(§3) Compound 1 (crystalline form I) was suspended in 0.5 w/v % methylcellulose and administered orally to mice. Antibodies which administered in the experiment were described in Table 8.
(§4) Tumor size was measured by caliper and tumor volume was estimated using the equation V=(LW^2)/2, where L and W are tumor length and width, respectively and reported in cubic millimeters.
(§5) These values were compared across treatment groups to assess whether the differences in the trends over time were statistically significant. To compare pairs of treatment groups, the following mixed-effects linear regression model was fit to the data using the maximum likelihood method:
(§6) For synergy analyses, the observed differences in the log tumor values were used to calculate AUC values for each animal. In instances when an animal in a treatment group was removed from the study, the last observed tumor value was carried forward through all subsequent time points. The AUC for the control, or vehicle, group was calculated using the predicted values from the pairwise models described above. We defined a measure of synergy as follows:
(§7) where Ak and Bk are the k^th animal in the individual treatment groups and ABk is the k^th animal in combination treatment group. AUCcd is the model-predicted AUC for the control group and was treated as a constant with no variability. The standard error of the synergy score was calculated as the square root of the sum of squared standard errors across groups A, B, and AB. The degrees of freedom were estimated using the Welch-Satterthwaite equation. A hypothesis test was performed to determine if the synergy score differed from 0. P values were calculated by dividing the synergy score by its standard error and tested against a t-distribution (two-tailed) with the above-calculated degrees of freedom.
(§8) The effect was classified into four different categories. It was considered synergistic if the synergy score was less than 0 and additive if the synergy score wasn't statistically different from 0. If the synergy score was greater than zero, but the mean AUC for the combination was lower than the lowest mean AUC among the two single agent treatments, then the combination was sub-additive. If the synergy score was greater than zero, and the mean AUC for the combination was greater than the mean AUC for at least one of the single agent treatments, then the combination was antagonistic.

H22 (Hepatoma) = test: as above; settings: note to Table 9; by note order: Anti-mCTLA-4 study in H22 (55 mm^3)
Protocol: as §1, §2, §3, §4, §5, §6, §7, §8

Panc02 (Pancreatic) = test: as above; settings: note to Table 9
Protocol: as §1, §2, §3, §4, §5, §6, §7, §8

JC (Breast) = test: as above; settings: note to Table 9
Protocol: as §1, §2, §3, §4, §5, §6, §7, §8

A20 (Lymphoma) = test: as above; settings: note to Table 9

With `Cc1[nH]ncc1-c1cc2nc([C@@H]3CC4CCN3CC4)[nH]c(=O)c2s1` [Compound 1, 2-[(2S)-1-azabicyclo[2.2.2]oct-2-yl]-6-(3-methyl-1H-pyrazol-4-yl)thieno[3,2-d]pyrimidin-4(3H)-one] the “sensitivity (growth inhibition) of RNASEH2A KO TK-6 cells versus WT TK-6 cells” value [1] was “more sensitive”, the “sensitivity of cancer cells with mutation or deletion of at least one sensitizing hit gene” value [2] was “more sensitive” and the CR per group ([3]; by note order: Anti-mCTLA-4 study in CT26 (40 mm^3)) was 0. The CR per group ([3]; by note order: Anti-mCTLA-4 study in CT26 (50 mm^3)) was 0, the CR per group ([3]; by note order: Anti-mPD-1 study in CT26 (40 mm^3)) was 0 and the CR per group ([3]; by note order: Anti-mPD-1 study in CT26 (50 mm^3)) was 0. The CR per group ([3]; by note order: Anti-mPD-1 study in CT26 (64 mm^3)) was “no CR”, the CR per group ([3]; by note order: NKTR-214 + anti-mPD-1 study in CT26 (64 mm^3)) was “no CR” and the CR per group ([3]; by note order: NKTR-214 study in CT26 (64 mm^3)) was “no CR”. It also gave a CR per group ([4]; by note order: Anti-mCTLA-4 study in J558 (30 mm^3)) of 2, a CR per group ([4]; by note order: Anti-mPD-1 study in J558 (30 mm^3)) of 2 and a CR per group ([4]; by note order: Anti-mPD-L1 study in J558 (30 mm^3)) of 2. For the same molecule, the CR per group (H22 (Hepatoma)) was 0, the CR per group (Panc02 (Pancreatic); by note order: Anti-mPD-1 study in Panc02 (75 mm^3)) was 0 CR in PD-1 group and 0 CR in Compound 1 group, and 0 CR in Compound 1/PD-1 combo group and the CR per group (Panc02 (Pancreatic); by note order: Gemcitabine study in Panc02 (75 mm^3)) was 0 CR in Gemcitabine group and 0 CR in Compound 1 group, and 0 CR in Compound 1/Gemcitabine combo group. The CR per group (JC (Breast); by note order: Anti-mCTLA-4 study in JC (60 mm^3)) was 0 CR in CTLA-4 group and 0 CR in Compound 1 group, and 0 CR in Compound 1/CTLA-4 combo group, the CR per group (JC (Breast); by note order: Anti-mPD-1 study in JC (60 mm^3)) was 0 CR in PD-1 group and 0 CR in Compound 1 group, and 0 CR in Compound 1/PD-1 combo group and the CR per group (A20 (Lymphoma); by note order: Anti-mPD-1 study in A20 (61 mm^3)) was 1. For the same molecule, the CR per group (A20 (Lymphoma); by note order: NKTR-214 + anti-mPD-1 study in A20 (61 mm^3)) was 1 and the CR per group (A20 (Lymphoma); by note order: NKTR-214 study in A20 (61 mm^3)) was 1.

— patent US20220323443A1, “COMBINATION THERAPY FOR CANCER TREATMENT” (TAKEDA PHARMACEUTICAL COMPANY LIMITED, priority 2019, published 2022)
